# Assay results: publication PMC4229098, “Alzheimer's Therapeutics Targeting Amyloid Beta 1–42 Oligomers I: Abeta 42 Oligomer Binding to Specific Neuronal Receptors Is Displaced by Drug Candidates That Improve Cognitive Deficits” (PLoS ONE, 2014)
# “Also recorded” adds a separate entry of the source. Where two headings read alike, the source gives them in different places.
# Legend:
# Abeta 1–42 oligomers = target: T1, Abeta 1–42 oligomers (Homo sapiens, UniProt P05067); test: Oligomer-specific Abeta ELISA (direct action on oligomers); type: biochemical
# T1 construct: purchased California Peptide Inc; American Peptide Company; or University of Pittsburgh Peptide Core facility 641-15; 62-0-80; host or cells: chemical synthesis
# T1 sequence (P05067 672-713): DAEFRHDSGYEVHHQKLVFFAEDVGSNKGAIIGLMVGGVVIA
# Experimental: Determination of oligomeric and monomeric concentrations of Abeta contained in a given Abeta preparation was done according to the method of LeVine. Briefly, total Abeta concentration is measured by two-site ELISA using different capture (6E10 monoclonal antibody, Covance SIG-39320) and detection (4G8- conjugated to biotin, Covance, SIG39240) antibodies and quantifyied with streptavidin-horseradish peroxidase (Millipore catalog number AP308P). Oligomerized Abeta is measured in the same samples by a single-site ELISA in which monoclonal antibodies to the same epitope are used for capture (4G8, Covance SIG-39330) and detection (4G8-biotin). The 4G8-biotin cannot bind to captured monomer because the epitope is blocked by the capture antibody, so only oligomers are detected with this configuration. The streptavidin-horseradish peroxidase therefore reports only oligomeric Abeta which has additional exposed 4G8 epitopes. Monomer concentration is calculated as the difference between total Abeta concentration and oligomer concentration.
# [1] = system: C57/BL6 mice injected with Abeta oligomers; test: Contextual fear conditioning after intrahippocampal Abeta oligomer injection; type: in vivo; details: 2 µM intrahippocampal; for prevention of Abeta oligomer-induced fear memory deficits: one hour prior to oligomer injection; for effect on fear memory when administered alone: without Abeta
# Excerpt: (§1) All procedures were approved by the Institutional Animal Care and Use and Committee at Columbia University and Stanford University and were in compliance with the Office of Laboratory Animal Welfare and the Guide for the Care and Use of Laboratory Animals, Eighth Edition. Behavioral testing of wild-type, 3–4 month old, male, C57/BL6 mice, injected bilaterally into their hippocampus with Abeta oligomers and testing in the fear conditioning task was done according to published methods. Animals were anesthetized with […] Avertin prior to implantation of cannulas into the hippocampus. Testing of transgenic hAPP Swedish/London mice in the Morris water maze or fear conditioning tasks was done according to published methods, [38]. To measure brain concentration of drugs, brains were homogenized in 1 ml PBS per gram of brain tissue using a handheld homogenizer. Brain homogenate was then extracted with three volumes of ice cold methanol on ice for 15 minutes and centrifuged for 15 min. The supernates were analyzed by LC/MS/MS. Samples were compared to a calibration curve prepared in a similar manner by spiking blank control homogenate with standards prepared in DMSO and then extracted as above. At the end of all behavioral testing, animals were euthanized with CO2 followed by cervical dislocation.
# [2] = system: mature primary hippocampal and cortical cultures; test: Membrane trafficking assay (MTT formazan exocytosis); type: cell-based, rat; details: for Schild slope: against synthetic oligomers; for reversal of trafficking deficit caused by human patient derived Abeta: compound 0.2 µM, Abeta 1.5 pM; for effect on trafficking of compound alone: no Abeta; for activity in blocking effects of Abeta oligomers: control compounds; for Treatment duration for maximum response: Abeta preparation dosed alone;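 as to all read-outs here: mixed neuron and glia cultures from E18 Sprague-Dawley rat embryos, grown 3 weeks in 384-well plates, labeled vesicles quantified by imaging or spectrophotometry as percent of vehicle-treated wells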
# [3] = system: mouse models of Alzheimer's disease; test: Behavioral tests (behavioral efficacy summary); type: in vivo, mice; parameters: key to Measured efficacy: statistically significant improvement (+); no significant improvement (-); details: for Behavioral efficacy: Table S1
# Excerpt: as §1
# [4] = Brain concentration of compounds (LC/MS/MS); type: in vivo, mice; details: mouse, 24 h after last dose, read-out: Compound Concentration in brain
# Excerpt: as §1
# [5] = system: neuronal synaptic puncta in hippocampal/cortical cultures; test: Abeta binding assay, neurons (immunofluorescence of neurite puncta); parameters: species or system rat; details: for displacement of Abeta oligomers: 15 µM compound added 1 hour after oligomers 0.5 µM, within 1 hour; for prevention of binding of Abeta oligomers to neuronal cultures: 15 µM compound one hour prior to synthetic Abeta oligomers 0.5 µM; for EC50: single site model
# [6] = system: synaptophysin-immunopositive puncta along MAP2-labeled neurites; test: Synapse counting assay; type: cell-based, rat; details: for Affects Synapse density in the absence of Aβ: Table S1
# Experimental: Sprague-Dawley rats, 18 days pregnant, were euthanized by CO2 asphyxiation followed by cervical dislocation, and embryos were removed. Hippocampus and cortical tissue from the embryo brains were digested in 2.5% Trypsin (Life Technologies) to dissociate cells. Isolated cells were plated at a density of 4.6×10^4 cells per cm^2 in 384-well poly-D Lysine coated plates (Greiner) in Neurobasal Media (Life Technologies) supplemented with B27 (Life Technologies), Glutamax (Life Technologies) and antibiotics (penicillin, 50 units/ml and streptomycin 50 µg/ml, Life Technologies). Cultures were maintained at 37°C in 5% CO2 with weekly media change for 3 weeks prior to experimentation. These mixed cultures of hippocampal plus cortical neurons and glia were used for all of the in vitro experiments described.
# Cultures were treated with compounds for 60 minutes prior to addition of 6 µM (maximum from trafficking dose-response curve) of synthetic Abeta 1–42 oligomers and incubated for 24 hrs. Cultures were fixed and immunofluorescently labeled and imaged as for the Abeta binding assay. The ThermoFisher/Cellomics Neuronal Profiling bioapplication was used to count synaptophysin-immunopositive puncta along MAP2-labeled neurites. The number of puncta per unit length of neurites was used to determine effects of treatments. To attain statistical power of 80% and a p value of less than 0.05 (determined using G*Power software), twenty replicate wells were treated per experiment plate and compared to control wells on the same plate and experiments were repeated four times.
# sigma-2/PGRMC1 receptor = target: T2, sigma-2/PGRMC1 receptor (Homo sapiens, UniProt Q5BJF2); test: Sigma-2 radioligand binding; details: radioligand competition binding; read-out: Ki, binding affinity at the sigma-2/PGRMC1 receptor
# T2 construct: endogenous in cells; host or cells: human Jurkat cells (membranes)
# T2 sequence (Q5BJF2 whole entry): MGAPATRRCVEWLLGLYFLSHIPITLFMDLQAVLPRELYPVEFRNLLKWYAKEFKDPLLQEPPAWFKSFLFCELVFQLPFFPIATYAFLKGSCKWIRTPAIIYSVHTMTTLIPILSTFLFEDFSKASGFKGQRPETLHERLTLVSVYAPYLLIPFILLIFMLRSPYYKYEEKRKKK
# Experimental: Radioligand competition assays were performed in membranes from human Jurkat cells using 5 nM [^3H]1,3-di(2-tolyl) guanidine in the presence of 1 µM (+)-pentazocine with 10 µM haloperidol to define non-specific binding.
# [7] = system: hAPP Swe/Ldn transgenic mice; test: Contextual fear conditioning in transgenic mice; type: in vivo; details: 5.5 months, 9 month old males
# Excerpt: as §1
# [8] = Rattus norvegicus, compound added 1 hr prior to Abeta oligomers, log value, read-out: Prevention Log EC50 ± SE (converted)
# [9] = Rattus norvegicus, compound added 1 hr prior to synthetic Abeta oligomers, read-out: Prevention EC50
# [10] = 1 mg/kg/day s.c. osmotic minipump
# [11] = 10 mg/kg/day s.c. osmotic minipump
# [12] = hAPP Swedish/London transgenic, subcutaneous, 1 mg/kg/day s.c. osmotic minipump
# [13] = hAPP Swedish/London transgenic, subcutaneous, 10 mg/kg/day s.c. osmotic minipump
# [14] = Rattus norvegicus, 1 h, compound added 1 hr after Abeta oligomers, log value, read-out: Treatment Log EC50 ± SE (converted)
# [15] = Rattus norvegicus, 1 h, compound added 1 hr after synthetic Abeta oligomers, read-out: Treatment EC50
# [16] = preparation dosed alone, read-out: EC50 of Abeta preparation
compound,measurement,setting,value
"Oc1cccc2cccnc12 [8-OH quinoline, reference compound]",dissociation of preformed oligomers,Abeta 1–42 oligomers,dissociated
CC(C)=CC(C[C@H](C)c1ccc(C)cc1)NCC(C)C (stereo partly shown) [CT0093],prevention of Abeta oligomer-induced fear memory deficits,[1],completely prevented fear memory deficits
same,effect on fear memory when administered alone,[1],no effect on memory
same,EC50,[2]; [8],4.9 µM
same,EC50,[2]; [9],4.9 µM
same,EC50,"[2]; Rattus norvegicus, compound added 1 hr after Abeta oligomers, log value, read-out: Treatment Log EC50 ± SE (converted)",2 µM
same,EC50,"[2]; Rattus norvegicus, compound added 1 hr after synthetic Abeta oligomers, read-out: Treatment EC50",2 µM
same,Schild slope,[2],1
same,reversal of trafficking deficit caused by human patient derived Abeta,[2],reverse the trafficking deficit
same,effect on trafficking of compound alone,[2],without affecting trafficking on their own
same,Measured efficacy,[3]; [10],-
same,Measured efficacy,[3]; [11],+
same,Behavioral efficacy,[3],Yes
same,dissociation of preformed oligomers,Abeta 1–42 oligomers,not by CT0109 or CT0093
same,concentration at 24 h,[4]; [12],64 nM
same,concentration at 24 h,[4]; [13],555 nM
same,displacement of Abeta oligomers,[5],49±5%
same,prevention of binding of Abeta oligomers to neuronal cultures,[5],93%±2%
same,IC50,"[5]; compound before oligomers, read-out: IC50, Abeta binding, prevention",2.2 µM
same,EC50,"[5]; pretreatment, read-out: EC50, prevention of Abeta binding",2.2 ± 2.4 µM
same,Affects Synapse density in the absence of Aβ,[6],No
same,Ki,sigma-2/PGRMC1 receptor,0.054 µM
COc1cc(CCC(C)NCc2ccc(C(F)(F)F)cc2)ccc1O (stereo not shown) [CT0109],prevention of Abeta oligomer-induced fear memory deficits,[1],completely prevented fear memory deficits
same,effect on fear memory when administered alone,[1],no effect on memory
same,restoration of trafficking,[2]; 15 µM added 1 hr prior to synthetic Abeta oligomers 3 µM,restores trafficking to vehicle-treated levels
same,EC50,[2]; [14],4.07 µM
same,EC50,[2]; [15],4.1 µM
same,EC50,"[2]; Rattus norvegicus, Table S1, read-out: Block Aβ-induced membrane trafficking deficits EC50",2.2 µM
same,EC50,[2]; [8],3.24 µM
same,EC50,[2]; [9],3.2 µM
same,Schild slope,[2],1
same,reversal of trafficking deficit caused by human patient derived Abeta,[2],reverse the trafficking deficit
same,effect on trafficking of compound alone,[2],without affecting trafficking on their own; also recorded: without affecting vesicles on its own
same,Measured efficacy,[3]; [10],+
same,Measured efficacy,[3]; [11],+
same,Behavioral efficacy,[3],Yes
same,dissociation of preformed oligomers,Abeta 1–42 oligomers,not by CT0109 or CT0093
same,concentration at 24 h,[4]; [12],41 nM
same,concentration at 24 h,[4]; [13],266 nM
same,displacement of Abeta oligomers,[5],44%±3%
same,prevention of binding of Abeta oligomers to neuronal cultures,[5],99%±7%
same,Affects Synapse density in the absence of Aβ,[6],No
same,Ki,sigma-2/PGRMC1 receptor,0.009 µM
COc1ccc(CCC(C)NC2CCCc3ccccc32)cc1 (stereo not shown) [CT01206],prevention of Abeta oligomer-induced fear memory deficits,[1],not effective
same,effect on fear memory when administered alone,[1],caused fear memory deficits in the absence of Abeta
same,EC50,[2]; [8],4.37 µM
same,EC50,[2]; [9],4.3 µM
same,Behavioral efficacy,[3],No
same,Affects Synapse density in the absence of Aβ,[6],Yes
C[C@H](CCc1ccc(Cl)c(Cl)c1)NCc1ccc(C(F)(F)F)cc1 [CT01344],contextual fear memory performance,[7]; 10 mg/kg/day p.o.,significantly improved fear memory performance
same,contextual fear memory performance,[7]; 30 mg/kg/day p.o.,significantly improved fear memory performance
same,EC50,[2]; [14],6.46 µM
same,EC50,[2]; [15],7.3 µM
same,EC50,[2]; [8],8.71 µM
same,EC50,[2]; [9],8.7 µM
same,Schild slope,[2],1
same,Measured efficacy,[3]; 10 mg/kg/day oral gavage,+
same,Measured efficacy,[3]; 30 mg/kg/day oral gavage,+
same,Behavioral efficacy,[3],Yes
same,concentration at 24 h,"[4]; hAPP Swe/Ldn transgenic, 10 mg/kg/day once daily oral gavage",394 nM
same,concentration at 24 h,"[4]; hAPP Swe/Ldn transgenic, 30 mg/kg/day once daily oral gavage",793 nM
same,displacement of Abeta oligomers,[5],66±14%
same,prevention of binding of Abeta oligomers to neuronal cultures,[5],94%±4%
same,IC50,"[5]; displacement of pre-bound oligomers, read-out: IC50, Abeta binding, treatment",3.9 µM
same,EC50,"[5]; read-out: EC50, displacement of pre-bound Abeta binding",3.9 ± 1.8 µM
same,restoration of synapse loss induced by Abeta,[6]; 15 µM,100%
same,Affects Synapse density in the absence of Aβ,[6],No
same,Ki,sigma-2/PGRMC1 receptor,0.048 µM
"C[C@]12N[C@H](Cc3ccccc31)c1ccccc12 [MK-801, reference compound]",activity in blocking effects of Abeta oligomers,[2],only memantine was active
"C[N+](C)(C)CCCCCC[N+](C)(C)C [hexamethonium bromide, reference compound]",activity in blocking effects of Abeta oligomers,[2],only memantine was active
"CC12CC3CC(C)(C1)CC(N)(C3)C2 [memantine, reference compound]",doses weakly blocking oligomer effects,[2]; control compound vs Abeta oligomers,above 100 µM
"O[C@H]1[C@H](O)[C@@H](O)[C@H](O)[C@@H](O)[C@@H]1O [scyllo-inositol, reference compound]",activity in blocking effects of Abeta oligomers,[2],only memantine was active
"Synthetic oligomers (low concentration): Abeta 1–42 oligomers formed at 500 nM, high molecular weight fraction from Sephadex G-75 [reference compound]",Treatment duration for maximum response,[2],1 h
same,EC50,[2]; [16],0.0027 µM
"semi-synthetic oligomers: Abeta 1–42 monomers incubated in size excluded rat brain homogenate, immunoprecipitated with 6E10 [reference compound]",Treatment duration for maximum response,[2],1 h
same,EC50,[2]; [16],0.0059 µM
